From article PMC12302426, “Dihydrokoumine, a dual-target analgesic with reduced side effects isolated from a traditional Chinese medicine” (Journal of Advanced Research, 2024)

Tests used:
M3R = target: T1, M3R (Homo sapiens, UniProt P20309); assay: Radioligand binding assay, [3H] NMS; conditions: [3H] NMS 0.2 nM
T1 construct: expressed in transfected cells; host or cells: HEK293 cell membranes
Method: Radioligand binding assays were conducted using MicroBeta2 (PerkinElmer, USA). Membrane protein preparations MOR and M3R were each prepared at a concentration of 2.5 µg/well. The radio ligands [^3H] DAMGO (specific for MOR) and [^3H]-NMS (specific for M3R) were prepared at concentrations of 0.5 nM and 0.2 nM, respectively. […] For each well, 1 µL of the serially diluted test compounds was transferred, followed by the addition of 100 µL of membrane stock solution and 100 µL of radioligand. The plates were sealed and shaken at 300 rpm at room temperature for one hour. Upon completion of the binding assay, the contents of each well were filtered through Unifilter-96 GF/C filter plates (PerkinElmer, USA). The filter plates were dried for one hour at 50°C and sealed. The trapped ^3H (tritium) on the filters was then quantified using the MicroBeta2. The percentage of inhibition or binding was subsequently calculated.

C57BL/6 male mice = assay: Hot-plate assay (acute pain); assay type: in vivo; conditions: morphine 5 mg/kg i.p.
Method: The hot-plate test in mice was conducted following previously established method. Six-week-old C57BL/6 male mice were used in hot-plate assay (n = 6). Hot-plate response latency (55°C) after drug treatment was used to measure antinociceptive effect, where response was defined by the animal either by licking paws, flicking paws or jumping. Mice were exposed to the hot plate (Ugo Basile model 7280, Comerio, Italy) for a maximum of 20 s to avoid tissue damage. After three days’ baseline measure, mice were injected intraperitoneally (5 mL/kg) with the solvent mixture, morphine (5 mg/kg) or DK (20, 40 mg/kg) and latency was tested 0.5-, 1-, 2-, 3- and 4- hours post-administration. Evaluation of MOR agonistic and M3R antagonistic activity of DK, naloxone (2 mg/kg) and oxotremorine (0.4 mg/kg) were first injected intraperitoneally, immediately followed by the injection of morphine (5 mg/kg, evaluation of MOR) or DK (20 mg/kg).

T1 sequence (P20309 whole entry): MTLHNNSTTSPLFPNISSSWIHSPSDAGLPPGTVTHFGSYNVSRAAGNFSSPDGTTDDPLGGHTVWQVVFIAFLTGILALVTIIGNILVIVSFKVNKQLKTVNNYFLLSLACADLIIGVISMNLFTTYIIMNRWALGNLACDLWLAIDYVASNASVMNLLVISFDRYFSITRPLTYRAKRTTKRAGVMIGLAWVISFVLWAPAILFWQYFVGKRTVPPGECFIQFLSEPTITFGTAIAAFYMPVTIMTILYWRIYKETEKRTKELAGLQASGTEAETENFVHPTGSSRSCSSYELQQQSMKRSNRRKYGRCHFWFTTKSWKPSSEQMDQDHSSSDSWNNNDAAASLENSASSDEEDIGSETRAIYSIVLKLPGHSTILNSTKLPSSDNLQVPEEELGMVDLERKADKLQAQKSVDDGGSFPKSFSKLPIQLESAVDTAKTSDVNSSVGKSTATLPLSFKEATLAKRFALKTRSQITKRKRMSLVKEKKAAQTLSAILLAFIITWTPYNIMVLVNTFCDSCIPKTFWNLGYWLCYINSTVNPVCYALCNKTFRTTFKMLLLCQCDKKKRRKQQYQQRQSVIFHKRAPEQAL

`CN1[C@@H]2C[C@@H](OC(=O)[C@H](CO)c3ccccc3)C[C@H]1[C@@H]1O[C@@H]12` [scopolamine, reference compound] was tested, and the “efficacy (maximal inhibition of radioligand binding)” value (M3R) was 100%.

With `CN1CC[C@]23c4c5ccc(O)c4O[C@H]2[C@@H](O)C=C[C@H]3[C@H]1C5` [morphine, reference compound] the “time course of antinociception” value (C57BL/6 male mice) was “largely reduced after one hour and even disappeared at 3 h”.
